# Reference: US7855232B2, “Organoselenium compound for cancer chemoprevention” (LKT Laboratories, Inc., priority 2001, dated 2010)
# Marks after values point to notes of the source that are not given here.
# Key:
# Type in all cases: in vivo, Female A/J mice
# GSH = experiment: Glutathione (GSH) concentration in tissues of treated mice, HPLC; conditions: liver; for Ratio Test/con (GSH): gavage; for GSH conc.: gavage in corn oil
# Procedure: GSH was quantitated by modification of the procedure Siller-Cepeda et al. Plant Cell Physiol. 32:1179-1185 (1991). Aliquots of tissue homogenates were mixed with equal volumes of 20% PCA containing 2 mM BPDS. Vortex, centrifuge at 7800×g for 15 minutes at 4° C. and 250 μl supernatant transferred into a microfuge tube containing 25 μl of γ-glu-glu as internal standard. The samples were carboxymethylated with 25 μl of 100 mM iodoacetic acid dissolved in 0.2 mM m-cresol purple sodium salt solution. The pH of the solution was adjusted to 9-10 by adding 350 μl of KOH (2M)-KHCO3 (2.4 M) mixture and incubated in the dark for 15 minutes. After carboxymethylation, the samples were derivatized with 500 μl of 1% dinitrofluorobenzene (DNFB) and kept in the dark at 4° C. overnight. The samples were centrifuged at 13,000×g for 15 minutes, filtered through 0.2 μm filter, and were analyzed with a SHIMADZU two-pump gradient HPLC system. Samples were injected by a SHIMADZU SIL-10AV Autoinjector onto a Varian 3-aminopropyl MICROSORB-MV column (4.6×250 mm) operated at ambient temperature with a flow rate of 1 ml/min. Absorbance of the dinitrophenyl derivatives was monitored at 365 nm. The amount of GSH was calculated from a standard curve using γ-glu-glu as internal standard.
# [1] = tested on: UDP-Glucuronosyltransferase (UDP-GT); experiment: UDP-glucuronosyltransferase (UDP-GT) activity in liver microsomes of treated mice, o-aminophenol substrate; conditions: for Ratio Test/con (UDP-GT): gavage; for UDP-GT activity (column head prints GSH conc.): gavage in corn oil
# Procedure: Microsomal samples were assayed for enzymatic conjugation by modifying the procedure of Zakim et al., Methods of Biochemical Analysis, ed. David Glick, 21:1-37, (1973). using o-aminophenol as the substrate. The complete assay solution contains, in a total volume of 500 μl, 0.25 M phosphate buffer (pH 7.6), 0.002 M o-aminophenol, 0.05 M UDPGA, 0.125 M magnesium chloride and 100 μl microsomes. The mixture was incubated for 30 minutes. Reactions were stopped by the addition of 500 μl of TCA-sodium phosphate reagent. The precipitated protein was removed, 100 μl of 0.05% sodium nitrite was added to 950 μl of the supernatent solution and allowed to stand for 5 minutes. 100 μl of 0.5% ammonium sulfamate was added, after 5 minutes. 100 μl of 0.12% N-(-1-naphthyl)ethylenediamine dihydrochloride was added and incubated for 2 hours in the dark; and the difference in the optical density between the blanks and the samples were recorded at 555 nm in a Beckman model DU65 UV-VIS spectrophotometer. The UDP-GT activity was calculated using the extinction coefficient 29 mM-1 cm-1 for the coupled product.
# [2] = tested on: Glutathione S-Transferase; experiment: Glutathione S-transferase (GST) activity in tissue cytosol of treated mice, CDNB substrate; conditions: for Ratio Test/con (GST): gavage; for GST act.: gavage in corn oil
# Procedure: The activity of cytosolic was assayed according to the method of Habig et al. using 1-chloro-2,4-dinitrobenzene (CDNB) as the substrate. Habig et al, J. Biol. Chem. 249:7130-7139 (1974). The complete solution contains, in a total volume of 2.0 mL, 0.1 M phosphate buffer, pH 6.5, 5 mM glutathione, 1 mM CDNB, and 20 μL of the cytosol. The reaction was monitored at 340 nm in a Beckman Model DU65 UV-VIS spectrophotometer. Assays were performed at 30° C. Complete assay mixture without the cytosolic enzyme was used as the reference blank. Data as analyzed by the Student's “t” test and P values were obtained in comparison to the control.
# [3] = colon, dose 0.02 mmol/Kg body weight
# [4] = colon, dose 0.04 mmol/Kg body weight
# [5] = forestomach, dose 0.02 mmol/Kg body weight
# [6] = forestomach, dose 0.04 mmol/Kg body weight
# [7] = liver, dose 0.02 mmol/Kg body weight
# [8] = liver, dose 0.04 mmol/Kg body weight
# [9] = lung, dose 0.02 mmol/Kg body weight
# [10] = lung, dose 0.04 mmol/Kg body weight
# [11] = small intestinal mucosa, dose 0.02 mmol/Kg body weight
# [12] = small intestinal mucosa, dose 0.04 mmol/Kg body weight
compound,measurement,setting,value
"N#C[Se]Cc1ccc(C[Se]C#N)s1 [(2) TDMSC, thienyl-2,5-di-methylene selenocyanate]",Ratio Test/con (GSH),GSH; dose 0.02 mmol/Kg body weight,1.28
same,GSH conc.,GSH; dose 0.02 mmol/Kg body weight,4.91 ± 1.16 μmol/gm tissue weight
same,Ratio Test/con (GSH),GSH; dose 0.04 mmol/Kg body weight,1.20
same,GSH conc.,GSH; dose 0.04 mmol/Kg body weight,4.60 ± 2.13 μmol/gm tissue weight
same,Ratio Test/con (UDP-GT),[1]; dose 0.02 mmol/Kg body weight,1.58
same,UDP-GT activity (column head prints GSH conc.),[1]; dose 0.02 mmol/Kg body weight,7.00 ± 1.07 ^c nmol/min/mg protein
same,Ratio Test/con (UDP-GT),[1]; dose 0.04 mmol/Kg body weight,2.81
same,UDP-GT activity (column head prints GSH conc.),[1]; dose 0.04 mmol/Kg body weight,12.44 ± 2.31 ^c nmol/min/mg protein
same,Ratio Test/con (UDP-GT),"[1]; dose 0.04 mmol/Kg body weight, listed as TDMSC 2",3.0
same,Ratio Test/con (GST),[2]; [3],1.00
same,GST act.,[2]; [3],0.40 ± 0.04 μmol/min mg protein
same,Ratio Test/con (GST),[2]; [4],1.00
same,GST act.,[2]; [4],0.40 ± 0.01 μmol/min mg protein
same,Ratio Test/con (GST),[2]; [5],1.15
same,GST act.,[2]; [5],0.90 ± 0.12 μmol/min mg protein
same,Ratio Test/con (GST),[2]; [6],1.15
same,GST act.,[2]; [6],0.90 ± 0.11 ^g μmol/min mg protein
same,Ratio Test/con (GST),[2]; [7],1.27
same,GST act.,[2]; [7],1.43 ± 0.2 ^g μmol/min mg protein
same,Ratio Test/con (GST),[2]; [8],1.12
same,GST act.,[2]; [8],1.26 ± 0.21 μmol/min mg protein
same,Ratio Test/con (GST),[2]; [9],1.04
same,GST act.,[2]; [9],0.49 ± 0.07 μmol/min mg protein
same,Ratio Test/con (GST),[2]; [10],1.15
same,GST act.,[2]; [10],0.54 ± 0.09 μmol/min mg protein
same,Ratio Test/con (GST),[2]; [11],1.03
same,GST act.,[2]; [11],0.35 ± 0.01 μmol/min mg protein
same,Ratio Test/con (GST),[2]; [12],1.18
same,GST act.,[2]; [12],0.40 ± 0.16 μmol/min mg protein
